Experimental data as given in US20050209278A1, “Piperidinyl- and piperazinyl-sulfonylmethyl hydroxamic acids and their use as protease inhibitors” (priority 2002, published 2005).
Where a name gives a salt, the structure may show the parent alone. Read-outs that look alike come from different tables or passages of the source.

Target: T1, MMP-2 (Homo sapiens, UniProt P08253)
T1 construct: made in house; host or cells: MMP-2-transfected p2AHT2 cells
T1 sequence (P08253 110-660): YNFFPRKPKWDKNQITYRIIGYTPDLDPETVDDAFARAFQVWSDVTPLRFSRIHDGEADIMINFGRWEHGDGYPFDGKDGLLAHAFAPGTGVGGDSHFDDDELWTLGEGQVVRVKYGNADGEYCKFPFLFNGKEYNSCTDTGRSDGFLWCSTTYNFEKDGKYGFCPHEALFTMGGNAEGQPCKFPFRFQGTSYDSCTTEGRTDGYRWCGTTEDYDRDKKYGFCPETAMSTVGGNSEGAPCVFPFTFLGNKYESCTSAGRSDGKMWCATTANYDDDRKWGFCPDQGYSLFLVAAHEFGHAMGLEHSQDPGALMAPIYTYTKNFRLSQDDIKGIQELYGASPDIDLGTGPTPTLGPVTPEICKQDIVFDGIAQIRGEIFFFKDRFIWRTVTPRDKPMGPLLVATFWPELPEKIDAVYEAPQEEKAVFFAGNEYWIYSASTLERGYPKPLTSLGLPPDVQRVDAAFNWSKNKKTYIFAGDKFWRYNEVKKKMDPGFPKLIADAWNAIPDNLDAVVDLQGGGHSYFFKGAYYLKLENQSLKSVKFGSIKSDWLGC
Experiment: In vitro MMP inhibition, Ki determination (fluorogenic substrate II)
Assay type: biochemical
Procedure: Several hydroxamic acids and salts thereof were analyzed in in vitro assays to determine their ability to inhibit the MMP cleavage of peptide substrates. […] and IC50 constants were calculated from the assayed hydroxamic acid-MMP interactions.
Human recombinant MMP-1, MMP-2, MMP-9, MMP-13, and MMP-14 were used in this assay. All enzymes were prepared in Assignee's laboratories following usual laboratory procedures. Protocols for the preparation and use of these enzymes are available in the scientific literature. See, e.g., Enzyme Nomenclature (Academic Press, San Diego, Calif., 1992) (and the citations therein). See also, Freije et al., “Molecular cloning and expression of collagenase-3, a novel human matrix metalloproteinase produced by breast carcinomas,” J Biol. Chem., 269(24), 16766-16773 (1994).
The MMP-2 proenzyme was purified by gelatin Sepharose chromatography from MMP-2-transfected p2AHT2 cells provided by Dr. Gregory Goldberg of Washington University (St. Louis, Mo.).
All MMPs were activated using 4-aminophenylmercuric acetate (“APMA”, Sigma Chemical, St. Louis, Mo.) or trypsin. MMP-9 also was activated using human recombinant MMP-3 (purified in Assignee's laboratory following standard cloning and purification techniques).
Two fluorogenic, methoxycoumarin-containing polypeptide substrates were used in the MMP inhibition assays: [drawing 427] Here, “Dpa” is 3-(2,4-dinitrophenyl)-L-2,3-diaminopropionyl group, and “MCA” is 7-methoxycoumarin-4-yl acetyl. Substrate (I) was purchased from Baychem (Redwood City, Calif.), and substrate II was prepared Assignee's laboratory. Substrate I was used in the IC50 determination assays, while substrate II was used in the Ki determination assays. In the absence of MMP inhibitory activity, either substrate is cleaved at the Gly-Leu peptide bond. This cleavage separates the highly fluorogenic peptide from the 2,4-dinitrophenyl quencher, thus resulting in increase of fluorescent intensity.
The stock solutions of the assayed hydroxamic acids (or salts thereof) were prepared in 1% dimethyl sulfoxide (DMSO). These stock solutions were diluted in Buffer A (100 mM Tris-HCl, 100 mM NaCl, 10 mM CaCl2, 0.05% polyoxyethylene 23 lauryl ether, pH 7.5) to obtain solutions with different hydroxamic acid concentrations, i.e., assay solutions with different concentrations of the assayed MMP inhibitory compound. The experiment controls contained the same amount of Buffer A/DMSO as the assayed sample, but contained no hydroxamic acid (or salt thereof).
The assays from which the Ki determinations were made were performed as follows. The assayed hydroxamic acid samples were incubated in separate wells of untreated white polystyrene plates (Nunc Nalgene International, Rochester, N.Y.), and analyzed on a Tecan SpectraFlour Plus plate reader. The excitation wavelength was 330 nm, and the emission wavelength—420 nm. All samples (assayed hydroxamic acids and controls) were incubated in separate plate wells at room temperature for 1 hr in the presence of 4 μM of MMP substrate (II). In the absence of MMP inhibitory activity, substrate II was cleaved at the Gly-Leu bond resulting in an increase of relative fluorescence. Inhibition was observed as a reduced rate of this increase in relative fluorescence. The various hydroxamic acids were analyzed using a single low enzyme concentration with a single substrate concentration fixed at or below the Km. This protocol is a modification of method by Knight et al., FEBS Lett., 296(3), 263-266 (1992). Apparent inhibitory constants were determined by non-linear regression of reaction velocity as a function of inhibitor and enzyme concentration using Morrison's equation, as described by Kuzmic, Anal. Biochem. 286, 45-50 (2000). […] Since the substrate concentration was chosen to be at or below the Km, the apparent Ki's from this analysis were reported as Ki's without correction for the influence of substrate.

[1] = human recombinant enzyme, 4 μM substrate II, room temperature, 1 hr, read-out: MMP-2 Ki
[2] = value not in parenthesis, read-out: MMP-2 Ki

Structure (SMILES)	Ki [1] [nM]	Ki [2] [nM]	further results
O=C(NO)C1(S(=O)(=O)N2CCN(c3ccc(OCCCC(F)(F)F)cc3)CC2)CCOCC1 [Example 7, N-hydroxy-4-({4-[4-(4,4,4-trifluorobutoxy)phenyl]piperazin-1-yl}sulfonyl)tetrahydro-2H-pyran-4-carboxamide Hydrochloride]	0.497		
CCCCOc1ccc(N2CCN(S(=O)(=O)C3(C(=O)NO)CCN(c4ccc(C)cn4)CC3)CC2)cc1 [Example 125]		1.8	
CCCCc1ccc(N2CCN(S(=O)(=O)C3(C(=O)NO)CCN(CCOC)CC3)CC2)cc1 [Example 5, 4-{[4-(4-butylphenyl)piperazin-1-yl]sulfonyl}-N-hydroxy-1-(2-methoxyethyl)piperidine-4-carboxamide Dihydrochloride]	0.62		
COCCN1CCC(C(=O)NO)(S(=O)(=O)N2CCN(c3ccc(OCC(F)(F)C(F)(F)F)cc3)CC2)CC1 [Example 144]		0.69	
CCCCCc1ccc(N2CCN(S(=O)(=O)C3(C(=O)NO)CCN(CCOC)CC3)CC2)cc1F [Example 13, 4-{[4-(3-fluoro-4-pentylphenyl)piperazin-1-yl]sulfonyl}-N-hydroxy-1-(2-methoxyethyl)piperidine-4-carboxamide Dihydrochloride]	0.549		
CCCCCc1ccc(N2CCN(S(=O)(=O)C3(C(=O)NO)CCN(CCOC)CC3)CC2)cc1 [Example 6, N-Hydroxy-1-(2-methoxyethyl)-4-{[4-(4-pentylphenyl)piperazin-1-yl]sulfonyl}piperidine-4-carboxamide Dihydrochloride]	0.501		
CCCCc1ccc(N2CCN(S(=O)(=O)C3(C(=O)NO)CCN(c4ccc(C)cc4)CC3)CC2)cc1 [Example 146]		6.41	
CCCCOc1ccc(N2CCN(S(=O)(=O)C3(C(=O)NO)CCN(c4cccnc4)CC3)CC2)cc1 [Example 154]		1.07	
CCCCCc1ccc(N2CCN(S(=O)(=O)C3(C(=O)NO)CCN(c4ccc(C)cc4)CC3)CC2)cc1 [Example 147]		20.5	
CCCCCc1cnc(N2CCN(S(=O)(=O)C3(C(=O)NO)CCOCC3)CC2)s1 [Example 56]		1.02	
O=C(NO)C1(S(=O)(=O)N2CCC(c3ccc(CCC(F)(F)C(F)(F)F)cc3)CC2)CCOCC1 [Example 18, N-hydroxy-4-({4-[4-(3,3,4,4,4-pentafluorobutyl)phenyl]piperidin-1-yl}sulfonyl)tetrahydro-2H-pyran-4-carboxamide]	0.565		
C=CCCOC(=O)N1CCC(C(=O)NO)(S(=O)(=O)N2CCN(c3ccc(OCCCC)cc3)CC2)CC1 [Example 101]		1.64	
CCCCOc1ccc(N2CCN(S(=O)(=O)C3(C(=O)NO)CCN(C(=O)OCCF)CC3)CC2)cc1 [Example 113]		0.4	
CCCCOc1ccc(N2CCN(S(=O)(=O)C3(C(=O)NO)CCN(c4ccc(OC)nc4)CC3)CC2)cc1 [Example 142]		0.978	
CCCCOc1ccc(N2CCN(S(=O)(=O)C3(C(=O)NO)CCN(CCOC)CC3)CC2)cc1F [Example 11, 4-[[4-(4-butoxy-3-fluorophenyl)-1-piperazinyl]sulfonyl]-N-hydroxy-1-(2-methoxyethyl)-4-piperidinecarboxamide, Dihydrochloride]	0.71		
CCCCCc1ccc(N2CCN(S(=O)(=O)C3(C(=O)NO)CCN(CC)CC3)CC2)cc1F [Example 22, 1-ethyl-4-{[4-(3-fluoro-4-pentylphenyl)piperazin-1-yl]sulfonyl}-N-hydroxypiperidine-4-carboxamine Hydrochloride]	3.19		
CCCCCCCCC1CCN(S(=O)(=O)C2(C(=O)NO)CCOCC2)CC1 [Example 26, 4-(4-octyl-piperidine-1-sulfonyl)-tetrahydro-pyran-4-carboxylic Acid Hydroxyamide]	0.78		

Structure (SMILES)	Ki [1] [nM]	Ki [2] [nM]	further results
COCCN1CCC(C(=O)NO)(S(=O)(=O)N2CCN(c3ccc(OCC(F)(F)F)cc3)CC2)CC1 [Example 119]		1.19	
Cc1ccc(N2CCN(S(=O)(=O)C3(C(=O)NO)CCOCC3)CC2)nc1 [Example 138]		0.469	
CCCCOc1ccc(N2CCN(S(=O)(=O)C3(C(=O)NO)CCN4CCCC4C3)CC2)cc1F (stereo not shown) [Example 126]		8.24	
COc1ccc(-c2cnc(N3CCN(S(=O)(=O)C4(C(=O)NO)CCOCC4)CC3)nc2)cc1 [Example 8, N-hydroxy-4-({4-[5-(4-methoxyphenyl)pyrimidin-2-yl]piperazin-1-yl}sulfonyl)tetrahydro-2H-pyran-4-carboxamide Hydrochloride]	1.98		
O=C(NO)C1(S(=O)(=O)N2CCN(c3ccc(OCC(F)(F)F)cc3)CC2)CCOCC1 [Example 2, N-hydroxy-4-({4-[4-(2,2,2-trifluoroethoxy)phenyl]piperazin-1-yl}sulfonyl)tetrahydro-2H-pyran-4-carboxamide Hydrochloride]	0.74		
CCCCOc1ccc(N2CCN(S(=O)(=O)C3(C(=O)NO)CCN(C(=O)OCCOC)CC3)CC2)cc1 [Example 141]		0.266	
CCCCOc1ccc(N2CCN(S(=O)(=O)C3(C(=O)NO)CCN(C(=O)c4cc5ccccc5s4)CC3)CC2)cc1 [Example 143]		8.97	
COCCN1CCC(C(=O)NO)(S(=O)(=O)N2CCN(c3ccc(OCCCC(F)(F)F)cc3F)CC2)CC1 [Example 102]		1.25	
CCOc1ccc(N2CCN(S(=O)(=O)C3(C(=O)NO)CCOCC3)CC2)cc1 [Example 3, 4-{[4-(4-ethoxyphenyl)piperazinyl]sulfonyl}perhydro-2H-pyran-4-carbohydroxamic Acid]	0.59		
CCCCCc1ccc(C2CCN(S(=O)(=O)C3(C(=O)NO)CCN(CCOC)CC3)CC2)cc1 [Example 15, N-hydroxy-1-(2-methoxyethyl)-4-{[4-(4-pentylpheyl)piperidin-1-yl]sulfonyl}piperidine-4-carboxamide Hydrochloride]	0.89		
CCc1ccc(N2CCN(S(=O)(=O)C3(C(=O)NO)CCOCC3)CC2)nc1 [Example 114]		0.367	
O=C(NO)C1(S(=O)(=O)N2CCN(c3ccc(COCC(F)(F)C(F)(F)C(F)(F)C(F)F)cc3)CC2)CCOCC1 [Example 68]			Ki (MMP-2 Ki, value not in parenthesis): 4.69 nM
CCCCOc1ccc(N2CCN(S(=O)(=O)C3(C(=O)NO)CCN(C(=S)N(C)C)CC3)CC2)cc1 [Example 123]		1.28	
COc1ccc(N2CCN(S(=O)(=O)C3(C(=O)NO)CCOCC3)CC2)nc1 [Example 109]		477	
CCCCOc1ccc(N2CCN(S(=O)(=O)C3(C(=O)NO)CCN(C(=O)N4CCOCC4)CC3)CC2)cc1 [Example 124]		0.193	
CCCCCc1ccc(N2CCN(S(=O)(=O)C3(C(=O)NO)CCOCC3)CC2)c(F)c1 [Example 23, 4-{[4-(2-fluoro-4-pentylphenyl)piperazin-1-yl]sulfonyl}-N-hydroxytetrahydro-2H-pyran-4-carboxamide Hydrochloride]	8.25		
CCCCOc1ccc(N2CCN(S(=O)(=O)C3(C(=O)NO)CCN(c4ccc(OCCOC)nn4)CC3)CC2)cc1 [Example 129]		0.508	
